Assay results: PubChem BioAssay (NCI)
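Where inhibition never reached the appropriate level, the endpoint shown equals the highest concentration tested. Otherwise, values were interpolated linearly from a five-concentration, 48-hour dose response in 96-well plates. GI50 marks 50% less growth. TGI: concentration producing complete growth inhibition.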

How the values were obtained:
Assay in all cases: NCI tumour cell line growth inhibition, 48 h
[1] = test system: DMS 273 small cell lung
[2] = test system: HOP-18 NSCLC
[3] = test system: KM20L2 colon
[4] = test system: M19-MEL melanoma
[5] = test system: DLD-1 colon
[6] = test system: DMS 114 small cell lung
[7] = test system: XF 498 CNS
[8] = test system: LXFL 529 NSCLC
[9] = test system: P388 leukemia
[10] = test system: P388/ADR leukemia
[11] = test system: SN12K1 renal

Row | Structure (SMILES) | TGI [1] [µM] | TGI [2] [µM] | TGI [3] [µM] | TGI [4] [µM] | TGI [5] [µM] | TGI [6] [µM] | TGI [7] [µM] | TGI [8] [µM] | TGI [9] [µM] | TGI [10] [µM] | TGI [11] [µM] | GI50 [2] [µM] | GI50 [4] [µM] | GI50 [5] [µM]
1 | CC#CCC1CCC(OCC)=CC1=O (stereo not given) | > 100 | > 100 | > 100 | > 100 | > 100 | > 100 | > 100 | > 100 | – | – | – | – | – | –
2 | N#CC(C#N)=C1NC(=O)CC(=O)N1 | > 100 | – | > 100 | > 100 | > 100 | > 100 | > 100 | > 100 | – | – | – | – | – | –
3 | O=C(/C=C/c1ccccc1)CCN1CCOCC1 | 35.9 | 32.2 | 31.2 | 28.3 | 22.1 | 23.9 | 29.1 | 8.43 | > 27.2 | 7.76 | 31 | – | – | –
4 | COc1ccc(C=O)c([N+](=O)[O-])c1 | 95.1 | > 100 | 45.2 | > 100 | – | 66.9 | > 100 | – | – | – | – | – | – | –
5 | N#CC(=C1C=CC(=NO)C=C1)c1ccc(Cl)cc1 | > 100 | > 100 | > 100 | 46.9 | 39 | 31.5 | – | 18 | – | – | – | – | – | –
6 | O=C1C(=C([O-])c2ccccc2)C(=O)c2ccccc21.O=C1C(=C([O-])c2ccccc2)C(=O)c2ccccc21.[Fe+2] | – | > 100 | – | > 100 | > 100 | – | – | – | – | – | – | > 100 | > 100 | > 100
7 | Cc1cccc(C)c1NC(=O)/C(=N/NC(N)=S)C(C)C(=O)c1ccc(Cl)cc1 (stereo not given) | > 100 | > 100 | > 100 | > 100 | > 100 | > 100 | > 100 | > 100 | – | – | – | – | – | –
8 | CC/C=C\C/C=C\C/C=C\CCCCCCCC(=O)OCC(O)CO (stereo not given) | > 100 | > 100 | > 100 | – | > 100 | > 71 | > 100 | > 68.9 | – | – | – | – | – | –
9 | COc1ccc(-c2cc(Cc3cccs3)c(=O)[nH]n2)cc1 | > 100 | – | > 100 | > 100 | – | > 100 | – | > 100 | – | – | – | – | – | –
10 | CCC(=O)C12OC3OC(C)(C)OC3C1OC(C)(C)O2 (stereo not given) | > 100 | – | – | > 100 | > 100 | – | > 100 | – | – | – | – | – | – | –
11 | CCN(CC)CC1c2ccccc2C(CNc2ccccc2)N1C (stereo not given) | > 100 | – | > 100 | > 100 | > 100 | > 100 | > 100 | > 100 | – | – | – | – | – | –
12 | Nc1nc(OCc2ccccc2)c2[nH]cnc2n1 | 400 | 335 | 400 | 400 | 400 | 191 | – | 400 | – | – | – | – | – | –
13 | O=C1CC(c2c[nH]c3ccccc23)C(=O)N1 (stereo not given) | > 100 | – | > 100 | > 100 | > 100 | – | > 100 | > 100 | – | – | – | – | – | –
14 | COc1cc2c(c(OC)c1OC)-c1ccc(SC)c(=O)cc1C(NC(=O)c1ccccc1)CC2 (stereo not given) | > 40.6 | > 100 | < 0.01 | > 100 | > 100 | – | – | > 76.5 | – | – | – | – | – | –
15 | CC(=O)Nc1ccc(SC#N)c2c(NC(C)=O)cccc12 | > 100 | > 100 | > 100 | > 100 | > 100 | > 100 | – | > 73 | – | – | – | – | – | –
16 | Cc1c(/C=N/N=C/c2[nH]c(C(=O)OC(C)(C)C)c(C)c2C)[nH]c(C(=O)OC(C)(C)C)c1C | > 100 | > 100 | > 100 | > 100 | > 100 | > 100 | – | > 100 | – | – | – | – | – | –
17 | COc1cc(C(=O)C/C(CCC(=O)Nc2ccccc2[N+](=O)[O-])=N\NC(N)=O)ccc1O | > 100 | > 100 | > 100 | > 100 | – | > 100 | > 100 | – | – | – | – | – | – | –
18 | COC(=O)C1(C)CCc2c(OC)ccc(OC)c2C1=O (stereo not given) | > 100 | – | – | > 100 | > 100 | > 100 | > 100 | > 100 | – | – | – | – | – | –
19 | NC(=O)c1csc(C2OC(CO)C(O)C2O)n1 (stereo not given) | 9960 | > 3980 | > 9200 | > 5520 | > 7200 | 3160 | 732 | – | 159 | 84.1 | > 9220 | – | – | –
20 | Fc1ccc(C2SCc3nc4ccccc4n32)c(F)c1 (stereo not given) | > 100 | > 100 | > 100 | > 100 | > 100 | > 100 | – | – | – | – | – | – | – | –
21 | CC1(O)C=CC(=O)C=C1 | 38.5 | > 100 | > 100 | 58.6 | 28.2 | 32.3 | > 65.1 | 26.4 | – | – | – | – | – | –
22 | O=C(NC1CCCCC1)NS(=O)(=O)c1ccc2c(c1)CCC2 | – | > 100 | – | > 100 | > 100 | > 100 | > 100 | – | – | – | – | – | – | –
